According to patent publication US11642348B2, “Substituted benzene compounds” (Epizyme, Inc., priority 2012, dated 2023):
Where two headings read alike, the source gives them in different places.

What was measured:
[1] = target: wild-type EZH2 (PRC2 complex) (Homo sapiens (Human), UniProt Q15910); experiment: PRC2 enzyme assay on peptide substrates (wild-type EZH2)
WSU-DLCL2 cells = experiment: Cell proliferation analysis (WSU-DLCL2, Cell Titer Glo); assay type: cell-based; settings: Homo sapiens, 6 days
Description: Cell Proliferation Analysis
WSU-DLCL2 suspension cells were purchased from DSMZ (German Collection of Microorganisms and Cell Cultures, Braunschweig, Germany). RPMI/Glutamax Medium, Penicillin-Streptomycin, Heat Inactivated Fetal Bovine Serum were purchased from Life Technologies, Grand Island, N.Y., USA. V-bottom polypropylene 384-well plates were purchased from Greiner Bio-One, Monroe, N.C., USA. Cell culture 384-well white opaque plates were purchased from Perkin Elmer, Waltham, Mass., USA. Cell-Titer Glo® was purchased from Promega Corporation, Madison, Wis., USA. SpectraMax M5 plate reader was purchased from Molecular Devices LLC, Sunnyvale, Calif., USA.
A compound source plate was prepared by performing triplicate nine-point 3-fold serial dilutions in DMSO, beginning at 10 mM (final top concentration of compound in the assay was 20 μM and the DMSO was 0.2%). A 100 nL aliquot from the compound stock plate was added to its respective well in the cell plate. […] After addition of compounds, assay plates were incubated for 6 days at 37° C., 5% CO2, relative humidity >90% for 6 days. Cell viability was measured by quantization of ATP present in the cell cultures, adding 35 μl of Cell Titer Glo® reagent to the cell plates. Luminescence was read in the SpectraMax M5. The concentration inhibiting cell viability by 50% was determined using a 4-parametric fit of the normalized dose response curves.

[2] = test system: H3K27me3 in WSU-DLCL2 cells; experiment: WSU-DLCL2 methylation assay (H3K27me3 ELISA); assay type: cell-based; settings: Homo sapiens, 96 hours
Description: WSU-DLCL2 suspension cells were purchased from DSMZ (German Collection of Microorganisms and Cell Cultures, Braunschweig, Germany). RPMI/Glutamax Medium, Penicillin-Streptomycin, Heat Inactivated Fetal Bovine Serum, and D-PBS were purchased from Life Technologies, Grand Island, N.Y., USA. Extraction Buffer and Neutralization Buffer (5×) were purchased from Active Motif, Carlsbad, Calif., USA. Rabbit anti-Histone H3 antibody was purchased from Abcam, Cambridge, Mass., USA. Rabbit anti-H3K27me3 and HRP-conjugated anti-rabbit-IgG were purchased from Cell Signaling Technology, Danvers, Mass., USA. TMB “Super Sensitive” substrate was sourced from BioFX Laboratories, Owings Mills, Md., USA. IgG-free Bovine Serum Albumin was purchased from Jackson ImmunoResearch, West Grove, Pa., USA. PBS with Tween (10×PBST) was purchased from KPL, Gaithersburg, Md., USA. Sulfuric Acid was purchased from Ricca Chemical, Arlington, Tex., USA. Immulon ELISA plates were purchased from Thermo, Rochester, N.Y., USA. V-bottom cell culture plates were purchased from Corning Inc., Corning, N.Y., USA. V-bottom polypropylene plates were purchased from Greiner Bio-One, Monroe, N.C., USA.
WSU-DLCL2 cells were seeded in assay medium at a concentration of 50,000 cells per mL to a 96-well V-bottom cell culture plate with 200 μL per well. […] Plates were incubated on a titer-plate shaker at 37° C., 5% CO2 for 96 hours. After four days of incubation, plates were spun at 241×g for five minutes and medium was aspirated gently from each well of cell plate without disturbing cell pellet. Pellet was resuspended in 200 μL DPBS and plates were spun again at 241×g for five minutes. The supernatant was aspirated and cold (4° C.) Extraction buffer (100 μL) was added per well. Plates were incubated at 4° C. on orbital shaker for two hours. […] Supernatant (80 μL per well) was transferred to its respective well in 96 well V-bottom polypropylene plate. Neutralization Buffer 5× (20 μL per well) was added to V-bottom polypropylene plate containing supernatant. V-bottom polypropylene plates containing crude histone preparation (CHP) were incubated on orbital shaker×five minutes. Crude Histone Preparations were added (2 μL per well) to each respective well into duplicate 96 well ELISA plates containing 100 μL Coating Buffer (1×PBS+BSA 0.05% w/v). Plates were sealed and incubated overnight at 4° C. The following day, plates were washed three times with 300 μL per well 1×PBST. […] For H3K27me3 detection, 100 μL of HRP conjugated anti-rabbit IgG antibody diluted to 1:4000 in ELISA diluent was added per well. Plates were incubated at room temperature for 90 minutes. […] TMB substrate 100 μL was added per well. Histone H3 plates were incubated for five minutes at room temperature. H3K27me3 plates were incubated for 10 minutes at room temperature. The reaction was stopped with sulfuric acid 1N (100 μL per well). Absorbance for each plate was read at 450 nm.
Each plate included eight control wells of DMSO only treatment (Minimum Inhibition) as well as eight control wells for maximum inhibition (Background wells).
The average of the ratio values for each control type was calculated and used to determine the percent inhibition for each test well in the plate. […] Percent inhibition was determined and IC50 curves were generated using duplicate wells per concentration of compound.

[3] = WSUDLCL2, Table 3A, read-out: WSU Prolif. IC50
[4] = WSUDLCL2, Table 3A, read-out: H3K27Me3 ELISA IC50
[5] = WSUDLCL2, Table 3B, read-out: ELISA H3K27me3 IC50
[6] = WSUDLCL2, Table 3B, read-out: WSU proliferation IC50

wild-type EZH2 (PRC2 complex), sequence (Q15910 other isoform, or with tags, fused parts or gaps): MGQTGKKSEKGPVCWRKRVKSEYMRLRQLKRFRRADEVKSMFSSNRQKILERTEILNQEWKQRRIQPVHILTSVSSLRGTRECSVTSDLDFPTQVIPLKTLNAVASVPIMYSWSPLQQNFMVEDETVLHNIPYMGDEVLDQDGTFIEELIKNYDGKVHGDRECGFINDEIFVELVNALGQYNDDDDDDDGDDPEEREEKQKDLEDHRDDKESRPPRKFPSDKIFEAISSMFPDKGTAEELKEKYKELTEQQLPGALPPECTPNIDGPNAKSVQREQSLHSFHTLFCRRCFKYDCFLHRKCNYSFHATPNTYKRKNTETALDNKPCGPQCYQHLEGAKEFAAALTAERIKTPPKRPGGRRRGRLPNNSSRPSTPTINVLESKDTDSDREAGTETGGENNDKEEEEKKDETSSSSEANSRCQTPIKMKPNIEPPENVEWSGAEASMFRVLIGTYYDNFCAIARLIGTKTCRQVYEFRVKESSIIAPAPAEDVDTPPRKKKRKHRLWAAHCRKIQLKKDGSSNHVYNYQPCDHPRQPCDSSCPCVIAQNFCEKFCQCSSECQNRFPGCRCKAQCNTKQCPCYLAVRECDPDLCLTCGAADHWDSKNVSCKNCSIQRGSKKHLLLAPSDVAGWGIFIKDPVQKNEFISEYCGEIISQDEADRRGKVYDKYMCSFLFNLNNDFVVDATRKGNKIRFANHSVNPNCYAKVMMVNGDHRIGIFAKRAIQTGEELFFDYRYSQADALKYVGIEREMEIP
wild-type EZH2 (PRC2 complex), sequence (O75530 whole entry partner): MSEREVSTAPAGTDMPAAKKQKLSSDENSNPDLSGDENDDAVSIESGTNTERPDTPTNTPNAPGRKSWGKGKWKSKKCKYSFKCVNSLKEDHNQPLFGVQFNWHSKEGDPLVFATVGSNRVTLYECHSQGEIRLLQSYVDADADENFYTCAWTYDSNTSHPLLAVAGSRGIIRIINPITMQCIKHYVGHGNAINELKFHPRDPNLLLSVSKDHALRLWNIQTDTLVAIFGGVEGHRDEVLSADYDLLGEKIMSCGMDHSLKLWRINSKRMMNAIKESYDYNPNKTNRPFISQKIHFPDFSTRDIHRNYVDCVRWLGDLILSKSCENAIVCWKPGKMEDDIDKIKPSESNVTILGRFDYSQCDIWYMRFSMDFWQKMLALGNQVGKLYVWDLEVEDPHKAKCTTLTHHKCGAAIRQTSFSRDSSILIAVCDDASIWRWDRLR
wild-type EZH2 (PRC2 complex), sequence (Q15022 whole entry partner): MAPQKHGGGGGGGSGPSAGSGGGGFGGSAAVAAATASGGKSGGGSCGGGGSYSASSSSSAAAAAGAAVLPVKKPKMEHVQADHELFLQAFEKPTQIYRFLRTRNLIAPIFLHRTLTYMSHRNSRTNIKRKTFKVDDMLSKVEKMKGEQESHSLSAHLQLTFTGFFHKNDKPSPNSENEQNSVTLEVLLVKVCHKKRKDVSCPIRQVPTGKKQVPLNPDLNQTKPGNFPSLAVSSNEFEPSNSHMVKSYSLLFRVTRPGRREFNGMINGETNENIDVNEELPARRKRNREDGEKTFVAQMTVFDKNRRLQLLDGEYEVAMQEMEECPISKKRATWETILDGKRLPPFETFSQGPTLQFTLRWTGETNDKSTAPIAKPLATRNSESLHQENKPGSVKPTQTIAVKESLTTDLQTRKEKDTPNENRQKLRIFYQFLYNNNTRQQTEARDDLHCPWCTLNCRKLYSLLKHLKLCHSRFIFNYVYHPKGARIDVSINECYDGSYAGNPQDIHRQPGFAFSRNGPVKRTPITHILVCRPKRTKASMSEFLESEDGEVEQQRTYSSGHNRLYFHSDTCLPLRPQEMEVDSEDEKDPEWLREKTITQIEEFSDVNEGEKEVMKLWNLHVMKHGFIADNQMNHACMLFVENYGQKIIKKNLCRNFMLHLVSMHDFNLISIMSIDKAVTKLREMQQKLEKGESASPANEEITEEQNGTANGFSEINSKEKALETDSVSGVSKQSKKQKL
wild-type EZH2 (PRC2 complex), sequence (Q09028 whole entry partner): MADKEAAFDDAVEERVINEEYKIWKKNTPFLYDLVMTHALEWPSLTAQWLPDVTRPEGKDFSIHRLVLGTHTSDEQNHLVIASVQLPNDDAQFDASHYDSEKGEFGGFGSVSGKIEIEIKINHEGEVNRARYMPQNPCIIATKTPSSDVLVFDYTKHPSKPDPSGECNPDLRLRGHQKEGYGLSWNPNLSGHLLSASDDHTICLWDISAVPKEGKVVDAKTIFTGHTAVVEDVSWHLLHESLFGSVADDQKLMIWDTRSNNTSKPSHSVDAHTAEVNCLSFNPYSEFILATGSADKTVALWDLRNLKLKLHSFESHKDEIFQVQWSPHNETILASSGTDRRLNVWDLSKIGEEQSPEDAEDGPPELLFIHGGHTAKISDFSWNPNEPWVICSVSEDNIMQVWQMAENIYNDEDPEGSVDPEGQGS

| Compound | IC50 [1] [µM] | IC50 (WSU-DLCL2 cells; [3]) [µM] | IC50 [2, 4] [µM] | IC50 [2, 5] [µM] | IC50 ([1]; read-out: WT EZH2 IC50, Table 3B, wild-type PRC2 enzyme, peptide substrate) [µM] | IC50 (WSU-DLCL2 cells; [6]) [µM] |
| --- | --- | --- | --- | --- | --- | --- |
| CCN(c1cc(-c2ccc(OCCO)cc2)cc(C(=O)NCc2c(C)cc(C)[nH]c2=O)c1C)[C@H]1CC[C@H](N(C)C)CC1 [Compound 3, N-((4,6-dimethyl-2-oxo-1,2-dihydropyridin-3-yl)methyl)-5-(((trans)-4-(dimethylamino)cyclohexyl)(ethyl)amino)-4′-(2-hydroxyethoxy)-4-methyl-[1,1′-biphenyl]-3-carboxamide] | 0.0113 | 0.186 | – | – | – | – |
| CCN(c1cc(-c2ccc(OCCO)nc2)cc(C(=O)NCc2c(C)cc(C)[nH]c2=O)c1C)[C@H]1CC[C@H](N(C)C)CC1 [Compound 4, N-((4,6-dimethyl-2-oxo-1,2-dihydropyridin-3-yl)methyl)-3-(((trans)-4-(dimethylamino)cyclohexyl)(ethyl)amino)-5-(6-(2-hydroxyethoxy)pyridin-3-yl)-2-methylbenzamide] | 0.0089 | 23.6 | 21.8 | – | – | – |
| CCN(c1cc(-c2ccc(OCCOC)nc2)cc(C(=O)NCc2c(C)cc(C)[nH]c2=O)c1C)[C@H]1CC[C@H](N(C)C)CC1 [Compound 5, N-((4,6-dimethyl-2-oxo-1,2-dihydropyridin-3-yl)methyl)-3-(((trans)-4-(dimethylamino)cyclohexyl)(ethyl)amino)-5-(6-(2-methoxyethoxy)pyridin-3-yl)-2-methylbenzamide] | 0.0131 | – | – | – | – | – |
| CCN(c1cc(-c2ccc(OCCOCCOC)cc2)cc(C(=O)NCc2c(C)cc(C)[nH]c2=O)c1C)[C@H]1CC[C@H](N(C)C)CC1 [Compound 6, N-((4,6-dimethyl-2-oxo-1,2-dihydropyridin-3-yl)methyl)-5-(((trans)-4-(dimethylamino)cyclohexyl)(ethyl)amino)-4′-(2-(2-methoxyethoxy)ethoxy)-4-methyl-[1,1′-biphenyl]-3-carboxamide] | 0.0154 | – | 0.0575 | – | – | – |
| CCN(c1cc(-c2ccc(OCCOC)cc2)cc(C(=O)NCc2c(OC)cc(C)[nH]c2=O)c1C)[C@H]1CC[C@H](N(C)C)CC1 [Compound 6b, 5-(((trans)-4-(dimethylamino)cyclohexyl)(ethyl)amino)-N-((4-methoxy-6-methyl-2-oxo-1,2-dihydropyridin-3-yl)methyl)-4′-(2-methoxyethoxy)-4-methyl-[1,1′-biphenyl]-3-carboxamide] | < 0.005 | – | 0.0339 | – | – | – |
| CCN(c1cc(C#CCN2CCN(C)CC2)cc(C(=O)NCc2c(C)cc(C)[nH]c2=O)c1C)[C@H]1CC[C@H](N(C)CCOC)CC1 [Compound 7, N-((4,6-dimethyl-2-oxo-1,2-dihydropyridin-3-yl)methyl)-3-(ethyl((trans)-4-((2-methoxyethyl)(methyl)amino)cyclohexyl)amino)-2-methyl-5-(3-(4-methylpiperazin-1-yl)prop-1-yn-1-yl)benzamide] | 0.021 | 0.651 | 0.458 | – | – | – |
| CCN(c1cc(C#CC(C)(C)O)cc(C(=O)NCc2c(C)cc(C)[nH]c2=O)c1C)[C@H]1CC[C@H](N(C)CCOC)CC1 [Compound 8, N-((4,6-dimethyl-2-oxo-1,2-dihydropyridin-3-yl)methyl)-3-(ethyl((trans)-4-((2-methoxyethyl)(methyl)amino)cyclohexyl)amino)-5-(3-hydroxy-3-methylbut-1-yn-1-yl)-2-methylbenzamide] | 0.00882 | 0.11 | 0.292 | – | – | – |
| CCN(c1cc(F)cc(C(=O)NCc2c(C)cc(C)[nH]c2=O)c1C)[C@H]1CC[C@H](N(C)CCOC)CC1 [Compound 9, N-((4,6-dimethyl-2-oxo-1,2-dihydropyridin-3-yl)methyl)-3-(ethyl((trans)-4-((2-methoxyethyl)(methyl)amino)cyclohexyl)amino)-5-fluoro-2-methylbenzamide] | 0.0053 | 1.31 | 0.515 | – | – | – |
| CCN(c1cccc(C(=O)NCc2c(C)cc(C)[nH]c2=O)c1C)[C@H]1CC[C@H](N(C)CCOC)CC1 [Compound 10, N-((4,6-dimethyl-2-oxo-1,2-dihydropyridin-3-yl)methyl)-3-(ethyl((trans)-4-((2-methoxyethyl)(methyl)amino)cyclohexyl)amino)-2-methylbenzamide] | 0.00736 | 0.307 | 0.469 | – | – | – |
| CCN(c1cc(OC)cc(C(=O)NCc2c(C)cc(C)[nH]c2=O)c1C)[C@H]1CC[C@H](N(C)CCOC)CC1 [Compound 11, N-((4,6-dimethyl-2-oxo-1,2-dihydropyridin-3-yl)methyl)-3-(ethyl((trans)-4-((2-methoxyethyl)(methyl)amino)cyclohexyl)amino)-5-methoxy-2-methylbenzamide] | 0.00627 | – | 0.673 | – | – | – |
| CCN(c1cc(OCCOC)cc(C(=O)NCc2c(C)cc(C)[nH]c2=O)c1C)[C@H]1CC[C@H](N(C)CCOC)CC1 [Compound 12, N-((4,6-dimethyl-2-oxo-1,2-dihydropyridin-3-yl)methyl)-3-(ethyl((trans)-4-((2-methoxyethyl)(methyl)amino)cyclohexyl)amino)-5-(2-methoxyethoxy)-2-methylbenzamide] | 0.029 | – | 0.308 | – | – | – |
| CCN(c1cc(-c2ccc(C)nc2)cc(C(=O)NCc2c(C)cc(C)[nH]c2=O)c1C)[C@H]1CC[C@H](N(C)CCOC)CC1 [Compound 15] | 0.00486 | 0.346 | 0.34 | – | – | – |
| CCN(c1cc(-c2ccc(OC)nc2)cc(C(=O)NCc2c(C)cc(C)[nH]c2=O)c1C)[C@H]1CC[C@H](N(C)CCOC)CC1 [Compound 16] | 0.00596 | 0.675 | 0.287 | – | – | – |
| CCN(c1cc(-c2cnc(OC)cn2)cc(C(=O)NCc2c(C)cc(C)[nH]c2=O)c1C)[C@H]1CC[C@H](N(C)CCOC)CC1 [Compound 17] | 0.0129 | 0.507 | 0.402 | – | – | – |
| CCN(c1cc(-c2cnc(C)cn2)cc(C(=O)NCc2c(C)cc(C)[nH]c2=O)c1C)[C@H]1CC[C@H](N(C)CCOC)CC1 [Compound 18] | 0.00859 | – | 0.553 | – | – | – |
| CCN(c1cc(-c2cnc(C)nc2)cc(C(=O)NCc2c(C)cc(C)[nH]c2=O)c1C)[C@H]1CC[C@H](N(C)CCOC)CC1 [Compound 19] | 0.00981 | – | – | – | – | – |
| CCN(c1cc(-c2cnc(OC)nc2)cc(C(=O)NCc2c(C)cc(C)[nH]c2=O)c1C)[C@H]1CC[C@H](N(C)CCOC)CC1 [Compound 20] | < 0.005 | – | – | – | – | – |
| CCN(c1cc(-c2cncnc2)cc(C(=O)NCc2c(C)cc(C)[nH]c2=O)c1C)[C@H]1CC[C@H](N(C)CCOC)CC1 [Compound 21] | 0.0101 | 1.39 | 0.84 | – | – | – |

| Compound | IC50 [1] [µM] | IC50 (WSU-DLCL2 cells; [3]) [µM] | IC50 [2, 4] [µM] | IC50 [2, 5] [µM] | IC50 ([1]; read-out: WT EZH2 IC50, Table 3B, wild-type PRC2 enzyme, peptide substrate) [µM] | IC50 (WSU-DLCL2 cells; [6]) [µM] |
| --- | --- | --- | --- | --- | --- | --- |
| CCN(c1cc(-c2cnccn2)cc(C(=O)NCc2c(C)cc(C)[nH]c2=O)c1C)[C@H]1CC[C@H](N(C)CCOC)CC1 [Compound 22] | 0.0283 | – | 1.04 | – | – | – |
| CCN(c1cc(-c2cnn(C)c2)cc(C(=O)NCc2c(C)cc(C)[nH]c2=O)c1C)[C@H]1CC[C@H](N(C)CCOC)CC1 [Compound 23] | < 0.005 | – | 0.401 | – | – | – |
| CCN(c1cc(C2CCOCC2)cc(C(=O)NCc2c(C)cc(C)[nH]c2=O)c1C)[C@H]1CC[C@H](N(C)CCOC)CC1 [Compound 25] | 0.0089 | 2.22 | 0.65 | – | – | – |
| CCN(c1cc(C#CCN2C[C@@H](C)N[C@@H](C)C2)cc(C(=O)NCc2c(C(C)C)cc(C)[nH]c2=O)c1C)C1CCOCC1 [Compound 101] | – | – | – | 0.126 | < 0.01 | 0.536 |
| CCN(c1cc(C#CCN2CCOCC2)cc(C(=O)NCc2c(C)cc(C)[nH]c2=O)c1C)[C@H]1CC[C@H](N(C)C)CC1 [Compound 111] | < 0.005 | – | – | – | – | – |
| CCN(c1cc(-c2ccc(CN3CCOCC3)nc2)cc(C(=O)NCc2c(C(F)(F)F)cc(C)[nH]c2=O)c1C)C1CCOCC1 [Compound 142] | – | – | – | 0.699 | – | 2 |
| CCN(c1cc(-c2ccc(N3CCC(O)CC3)nc2)cc(C(=O)NCc2c(C)cc(C)[nH]c2=O)c1C)[C@H]1CC[C@H](N(C)C)CC1 [Compound 143] | – | – | – | 0.018 | – | 0.276 |
| CCN(c1cc(-c2ccc(N3CC(O)C3)nc2)cc(C(=O)NCc2c(C)cc(C)[nH]c2=O)c1C)[C@H]1CC[C@H](N(C)C)CC1 [Compound 144] | – | – | – | 0.092 | – | 1.54 |
| CCN(c1cc(-c2ccc(CN3CCOCC3)nc2)cc(C(=O)NCc2c(C)cc(C)[nH]c2=O)c1C)[C@H]1CC[C@H](N(C)C)CC1 [Compound 145] | – | – | – | 0.0842 | – | 0.185 |
| CCN(c1cc(-c2ccc(CN3CC(O)C3)c(F)c2)cc(C(=O)NCc2c(C)cc(C)[nH]c2=O)c1C)C1CCOCC1 [Compound 154] | – | – | – | 0.529 | – | 0.394 |
| CCN(c1cc(C#CC2CCN(C3CC3)CC2)cc(C(=O)NCc2c(C)cc(C)[nH]c2=O)c1C)C1CCOCC1 [Compound 157] | < 0.005 | – | 0.14 | – | – | – |
| CCN(c1cc(C#CC2CCN(C3CCC3)CC2)cc(C(=O)NCc2c(C)cc(C)[nH]c2=O)c1C)C1CCOCC1 [Compound 158] | < 0.005 | – | 0.215 | – | – | – |
| CCN(c1cc(C#CC2CCN(C3COC3)CC2)cc(C(=O)NCc2c(C)cc(C)[nH]c2=O)c1C)C1CCOCC1 [Compound 159] | < 0.005 | – | 0.262 | – | – | – |
| CCN(c1cc(C#CC2CCN(C(C)=O)CC2)cc(C(=O)NCc2c(C)cc(C)[nH]c2=O)c1C)[C@H]1CC[C@H](N(C)C)CC1 [Compound 160] | 0.014 | – | 0.094 | – | – | – |
| CCN(c1cc(C#CC2CCN(CC(F)(F)F)CC2)cc(C(=O)NCc2c(C)cc(C)[nH]c2=O)c1C)[C@H]1CC[C@H](N(C)C)CC1 [Compound 161] | < 0.005 | – | 0.034 | – | – | – |
| CCN(c1cc(C#CC2CCN(C3CN(C)C3)CC2)cc(C(=O)NCc2c(C)cc(C)[nH]c2=O)c1C)C1CCOCC1 [Compound 162] | 0.012 | – | – | – | – | – |
| CCN(c1cc(C#CC2CCN(C)CC2)cc(C(=O)NCc2c(OC)cc(C)[nH]c2=O)c1C)C1CCOCC1 [Compound 163] | < 0.005 | – | 0.043 | – | – | – |
